Test [1] deals with T1, Type-VI α-amylase (porcine pancreas) (Sus scrofa, UniProt P00690).
T1 construct: purchased Sigma Aldrich (Darmstadt, Germany); host or cells: porcine pancreas
T1 sequence (P00690 16-511): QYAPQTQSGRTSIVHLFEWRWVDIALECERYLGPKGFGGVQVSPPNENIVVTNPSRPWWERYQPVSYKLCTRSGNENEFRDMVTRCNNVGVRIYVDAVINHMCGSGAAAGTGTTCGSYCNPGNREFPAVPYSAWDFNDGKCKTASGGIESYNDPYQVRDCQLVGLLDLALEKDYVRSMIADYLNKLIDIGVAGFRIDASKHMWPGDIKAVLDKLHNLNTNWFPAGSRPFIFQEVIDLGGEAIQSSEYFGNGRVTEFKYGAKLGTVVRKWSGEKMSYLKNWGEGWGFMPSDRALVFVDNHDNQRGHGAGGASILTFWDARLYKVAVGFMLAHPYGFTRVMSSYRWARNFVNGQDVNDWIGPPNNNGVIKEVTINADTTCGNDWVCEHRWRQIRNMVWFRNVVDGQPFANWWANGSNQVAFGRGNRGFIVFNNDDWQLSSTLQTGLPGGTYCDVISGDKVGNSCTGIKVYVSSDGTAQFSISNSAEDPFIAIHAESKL
Put plainly: In vitro α-amylase inhibition assay (DNSA). It is filed as biochemical. Conditions: for inhibition at 31.05 µg/mL / inhibition at 62.5 µg/mL / inhibition at 125 µg/mL / inhibition at 250 µg/mL / inhibition at 500 µg/mL / inhibition at 1000 µg/mL: read-out: % α-Amylase Inhibition Mean ± SEM; for IC50: linear regression of % inhibition vs concentration. On the procedure:
The α-amylase inhibition activity of morin was assessed using 3, 5-dinitrosalicylic acid (DNSA) assay. Morin, phloroglucinol, and 1-hexyl benzene were dissolved in mixture of 10% DMSO, 0.02M Na2HPO4/NaH2PO4 buffer, and 0.006M NaCl (pH 6.9) and finally dilutions (31.05, 62.5, 125, 250, 500 and 1000 µg/mL) were prepared. In total, 200 μL α-amylase (2 units/mL) was mixed with 200 μL morin and incubated at 30 °C for 10 min. After that, 200 μL starch (1%) was added to each serial dilution and incubated for 3 min. To stop the reaction 200 μL sodium potassium tartrate tetrahydrate reagent, 2M NaOH, and […] DNSA (96mM) reagent were added to the reaction mixture. The reaction mixtures were boiled for 10 min at 85–90 °C in a water bath. After cooling the mixture was diluted with 5mL distilled water and finally at 540 nm absorbance was recorded. A blank solution was prepared containing only isolated compound morin but no enzyme. […] The α-amylase enzyme inhibitory activity was calculated by the following Equation (2): (2) % α − amylase Inhibition =control absorbance−sample absorbance/control absorbance×100
All the in vitro and in vivo experiments were analyzed in three replicates and determined as mean ± SEM. Student’s t-test and one way ANOVA followed by Dunnett’s post hoc multiple comparison test was used. p ≤ 0.05 were considered as significant. Linear regression analysis was used to calculate the IC50 value for % DPPH, ABTS, α-amylase, and α-glucosidase inhibition against the different concentrations of the test samples by means of Excel program 2007.

Test [2] deals with STZ-induced diabetic rats. Put plainly: STZ-induced diabetic rat model: fasting blood glucose and body weight. It counts as in vivo, Sprague Dawley adult albino rats. On the procedure:
Sprague Dawley adult albino rats (body weight range = 170–200 g) were used in in vivo studies. The animals were purchased from Rifah Institute of Pharmaceutical Sciences Islamabad. The entire animals were given food and fresh water ad libitum. The animals were adjusted at room temperature around 22–25 °C. The animals were housed three rats per cage and maintained with light/dark cycle of about 12 h. All the in vivo procedures were carried out according to the ARRIVE guidelines and approval was taken from the Departmental Animal Ethical Committee (DAEC/2019/1), University of Malakand.
All the animals were separated into nine groups having eight animals each (Table 1). In the current investigational study STZ-induced diabetic model was used to evaluate the anti-hyperglycemic and anti-hyperlipidemic activity of isolated compound morin in chronic multiple dose experiment. All the animals were treated with their respective treatments for 21 days starting daily at 09:00 am. The fasting blood glucose levels were determined at 0, 4th, 7th, 10th, 15th, and 21st days with glucometer from the tail vein. Changes in the body weight were recorded for untreated control, diabetic, and treated groups in fasting condition from day 1 to day 21 of experimental period and are presented as % increase in body weight.
According to the reported protocol diabetes was induced into Sprague Dawley adult albino rats by intraperitoneal injection of STZ (50 mg/kg body weight). Blood samples were collected from the tail vein through glucometer strips by means of SD glucometer and the level of blood glucose was measured 72 h after STZ injection. Normal control groups were given normal saline (8 mL/kg, p.o.) as a vehicle, while isolated compound morin to the treatment groups from 3 days after STZ administration for 3 weeks. Animals with blood glucose levels higher than 300 mg/dL were considered diabetic. During the experiment the blood glucose level and body weights were measured.

In test [3] the test system is STZ-induced diabetic rats. Put plainly: Ex vivo DPPH scavenging of pancreas tissue homogenates (intracellular ROS level). It is filed as in vivo, Sprague Dawley adult albino rats. The arrangement: dose or concentration left out as unconfirmed. On the procedure: The pancreas tissue (1 g) was isolated from Sprague Dawley rats, washed with cold saline solution and blotted dried. A weighed portion of the pancreas tissue was homogenized on ice and then centrifuged for 15 min at 3500 rpm at 4 °C. The supernatant was then taken and stored at −20 °C until assessed for different enzymes.
Cellular oxidative stress due to the overproduction of reactive oxygen species (ROS) generated by streptozotocin was measured in pancreas tissues through DPPH free radical scavenging assays. Briefly, 50 µL (0.3 mM) DPPH in methanol was incubated with 100 µL supernatant of the tissue homogenates of each experimental group and […] in the dark for 30 min at room temperature. Ascorbic acid was used as the standard. The absorbance was then read against a blank at 517 nm. The percentage scavenging was calculated according to the equation No 1.

The inhibition is how much of the control response was suppressed. What is called IC50 is the point on the concentration scale where inhibition reaches its midpoint.

The structures appear in SMILES notation.

Turning to `CCCCCCc1ccccc1` [1-Hexyl benzene, 1-hexylbenzene], in test [1], the inhibition at 31.05 µg/mL worked out at 22 ± 1.1%, the inhibition at 62.5 µg/mL turned out to be 28 ± 2.1%, the inhibition at 125 µg/mL turned out to be 37 ± 1.4% and the inhibition at 250 µg/mL was 44 ± 0.5%. Also, in test [1], the inhibition at 500 µg/mL turned out to be 49 ± 2.1%, the inhibition at 1000 µg/mL was 55 ± 1.5% and the IC50 is 709 µM.
As for `O=c1c(O)c(-c2ccc(O)cc2O)oc2cc(O)cc(O)c12` [Morin, 2-(2,4-Dihydroxyphenyl)-3,5,7-trihydroxychromen-4-one], in test [1], the inhibition at 31.05 µg/mL came to 37 ± 1.1%. Also, the inhibition at 62.5 µg/mL in test [1] is 44 ± 2.1%. In addition, the inhibition at 125 µg/mL in test [1] came out at 54 ± 1.4%. Besides, the inhibition at 250 µg/mL in test [1] came out at 60 ± 0.5%. Besides, the inhibition at 500 µg/mL in test [1] came out at 67 ± 1.4%. The inhibition at 1000 µg/mL in test [1] is 75 ± 1.5%. Besides, the IC50 in test [1] was 182 µM. Moreover, the body weight gain result is on record as “significant (p < 0.01) increases” in test [2] (morin 10 mg/kg body weight); “significant (p < 0.001) improvement” in test [2] (morin 15, 30, and 50 mg/kg body weight). Further, the blood glucose level entry was “slowly reduce blood glucose level” in test [2] (morin 2 and 5 mg/kg body weight); “significant (p ˂ 0.01) decrease” in test [2] (morin oral 30, 15, 50 mg/kg body weight, vs diabetic control). Moreover, the glucose level entry in test [2] (morin 10, 15, 30, and 50 mg/kg body weight, compared to the diabetic control group) was “comparable decline in glucose level”. Further, the “% DPPH inhibition activity in the pancreas tissues” value in test [3] (morin 2 treated group, diabetic control 22.41 ± 4.25) came to 49.88 ± 3.21%; in test [3] (morin 5 treated group) it was 52.66 ± 2.81%; in test [3] (morin 10 treated group) it was 60.42 ± 2.12%; in test [3] (morin 15 treated group) it was 65.33 ± 22.13%; in test [3] (morin 30 treated group) it was 69.33 ± 3.12%; in test [3] (morin 50 treated group) it was 71.42 ± 3.23%.
For `Oc1cc(O)cc(O)c1` [Phloroglucinol, Benzene-1,3,5-triol], in test [1], the inhibition at 31.05 µg/mL turned out to be 29 ± 1%, the inhibition at 62.5 µg/mL turned out to be 32 ± 1.4%, the inhibition at 125 µg/mL was 39 ± 1.5% and the inhibition at 250 µg/mL was 42 ± 0.4%. In addition, in test [1], the inhibition at 500 µg/mL came out at 55 ± 1.1%, the inhibition at 1000 µg/mL was 63 ± 0.5% and half-maximal inhibition (IC50) was put at 753 µM.

Values taken from article PMC8348310, “Antioxidants Isolated from Elaeagnus umbellata (Thunb.) Protect against Bacterial Infections and Diabetes in Streptozotocin-Induced Diabetic Rat Model” (Molecules, 2021).
